{"source": "patent US5314896A", "about": "“1,3-substituted cycloalkenes and cycloalkanes as central nervous system agents” (priority 1992, dated 1994)", "key": {"[1]": {"tested_on": "Locomotor Activity in Mice", "assay": "Inhibition of locomotor activity in mice", "assay_type": "in vivo", "conditions": "Mus musculus", "method": "(§1) The compounds of Formula I are valuable dopaminergic agents. […] Thus, the compounds of Formula I were tested for their ability to inhibit locomotor activity in mice and rats, a measure of antipsychotic activity, according to the assay described by J. R. McLean, et al, Pharmacology, Biochemistry and Behavior, Vol. 8, pages 97-99 (1978); for their ability to bind to dopamine receptors as measured by their inhibition of [^3 H]spiroperidol binding in a receptor assay described by D. Grigoriadis and P. Seeman, Journal of Neurochemistry, Vol. 44, pages 1925-1935 (1985); and for their ability to effect dopamine synthesis in rats according to the protocol described by J. R. Walters and R. H. Roth, Naunyn-Schmiedebero's Archives of Pharmacology, Vol. 296, pages 5-14 (1976). The above test methods are incorporated herein by reference. The data in the table show the dopaminergic activity of representative compounds of Formula I."}, "dopamine receptors [2]": {"target": "dopamine receptors", "assay": "Inhibition of [^3 H] spiroperidol binding", "method": "as §1"}, "dopamine receptors [3]": {"tested_on": "dopamine receptors", "assay": "Comparison of 1,3 versus 1,4 series activity (binding and locomotor activity), results in words", "conditions": "Table 2", "method": "(§2) Thus, the compounds of Formula I were tested for their ability to inhibit locomotor activity in mice and rats, a measure of antipsychotic activity, according to the assay described by J. R. McLean, et al, Pharmacology, Biochemistry and Behavior, Vol. 8, pages 97-99 (1978); for their ability to bind to dopamine receptors as measured by their inhibition of [^3 H]spiroperidol binding in a receptor assay described by D. Grigoriadis and P. Seeman, Journal of Neurochemistry, Vol. 44, pages 1925-1935 (1985); and for their ability to effect dopamine synthesis in rats according to the protocol described by J. R. Walters and R. H. Roth, Naunyn-Schmiedebero's Archives of Pharmacology, Vol. 296, pages 5-14 (1976). The above test methods are incorporated herein by reference.\n(§3) The most important test is the locomotor activity orally in the rat as this corresponds most closely to human oral administration of an antipsychotic compound."}, "[4]": {"tested_on": "Locomotor Activity in Rats", "assay": "Inhibition of locomotor activity in rats (oral)", "assay_type": "in vivo", "method": "as §2, §3"}, "Brain Dopamine Synthesis": {"tested_on": "Brain Dopamine Synthesis", "assay": "% effects on brain dopamine synthesis in rats", "assay_type": "in vivo", "conditions": "Rattus norvegicus", "method": "as §1"}, "[5]": {"conditions": "mice, IP (Table 2), read-out: Inhibition of Locomotor Activity in Mice ED50"}, "[6]": {"conditions": "ip, read-out: Inhibition of Locomotor Activity in Mice ED50, mice, IP (Table 1)"}, "[7]": {"conditions": "ip, read-out: % Effects on Brain Dopamine Synthesis in Rats, rats, 10 mg/kg, IP (Table 1)"}, "[8]": {"conditions": "mice, IP (Table 1), read-out: Inhibition of Locomotor Activity in Mice ED50"}, "[9]": {"conditions": "rats, 10 mg/kg, IP (Table 1), read-out: % Effects on Brain Dopamine Synthesis in Rats"}}, "note": "Read-outs that look alike come from different tables or passages of the source.", "data": [{"smiles": "C1=C(c2ccccc2)CC(N2CCN(c3ccccn3)CC2)CC1", "note": "(racemic) [Compound J, (±)-1-(3-phenyl-3-cyclohexen-1-yl)-4-(2-pyridinyl)piperazine, reference compound]", "values": [{"measurement": "ED50", "setting": "[1]; [5]", "value": 28.2, "unit": "mg/kg"}, {"measurement": "IC50", "setting": "dopamine receptors [2]; Table 2", "value": 9850, "unit": "nM"}, {"measurement": "binding and locomotor activity", "setting": "dopamine receptors [3]", "value": "essentially inactive"}]}, {"smiles": "C1=C(c2ccccc2)CCN(CC2CCC=C(c3ccccc3)C2)C1", "note": "(racemic) [Example 1, (±)-1,2,3,6-Tetrahydro-4-phenyl-1-[(3-phenyl-3-cyclohexen-1-yl)methyl]pyridine]", "values": [{"measurement": "ED50", "setting": "[1]; [6]", "value": 1.6, "unit": "mg/kg"}, {"measurement": "ED50", "setting": "[1]; ip, read-out: Inhibition of Locomotor Activity in Mice ED50, mice, IP (Table 2)", "value": 1.6, "unit": "mg/kg"}, {"measurement": "locomotor activity orally in the rat", "setting": "[4]; Table 2 compounds", "value": "clearly the most potent"}, {"measurement": "times more active than the 1,4 Compound C, locomotor activity orally in the rat", "setting": "[4]; versus Compound C", "value": 4.8, "unit": "times"}, {"measurement": "change in vivo at 10 mg/kg", "setting": "Brain Dopamine Synthesis; [7]", "value": -86, "unit": "%"}, {"measurement": "IC50", "setting": "dopamine receptors [2]; Table 1", "value": 72, "unit": "nM"}, {"measurement": "IC50", "setting": "dopamine receptors [2]; Table 2", "value": 72, "unit": "nM"}, {"measurement": "binding and locomotor activity", "setting": "dopamine receptors [3]", "value": "surprisingly much more active in its binding and locomotor activity"}]}, {"smiles": "C1=C(c2ccccc2)CC(CN2CCN(c3ccccn3)CC2)CC1", "note": "(racemic) [Example 4, (±)-1-[(3-phenyl-3-cyclohexen-1-yl)methyl]-4-(2-pyridinyl)piperazine]", "values": [{"measurement": "ED50", "setting": "[1]; [8]", "value": 0.85, "unit": "mg/kg"}, {"measurement": "change in vivo at 10 mg/kg", "setting": "Brain Dopamine Synthesis; [9]", "value": -61, "unit": "%"}, {"measurement": "IC50", "setting": "dopamine receptors [2]; Table 1", "value": 141, "unit": "nM"}, {"measurement": "IC50", "setting": "dopamine receptors [2]; Table 2", "value": 141, "unit": "nM"}, {"measurement": "binding and locomotor activity", "setting": "dopamine receptors [3]", "value": "very potent"}]}, {"smiles": "C1=C(c2ccccc2)CCC(N2CCN(c3ccccn3)CC2)C1", "note": "(racemic) [F, (±)-1-(4-phenyl-3-cyclohexen-1-yl)-4-(2-pyridinyl)piperazine, reference compound]", "values": [{"measurement": "ED50", "setting": "[1]; [5]", "value": 1.01, "unit": "mg/kg"}, {"measurement": "IC50", "setting": "dopamine receptors [2]; Table 2", "value": 599, "unit": "nM"}, {"measurement": "binding and locomotor activity", "setting": "dopamine receptors [3]", "value": "much more active than Compound G"}]}, {"smiles": "C1=C(c2ccccc2)CCC(CCN2CCN(c3ccccn3)CC2)C1", "note": "(racemic) [H, (±)-1-[(4-phenyl-3-cyclohexen-1-yl)ethyl]-4-(2-pyridinyl)piperazine, reference compound]", "values": [{"measurement": "ED50", "setting": "[1]; [5]", "value": 1.1, "unit": "mg/kg"}, {"measurement": "IC50", "setting": "dopamine receptors [2]; Table 2", "value": 409, "unit": "nM"}, {"measurement": "binding and locomotor activity", "setting": "dopamine receptors [3]", "value": "much more active than Compound G"}]}, {"smiles": "Fc1ccc(C2=CCC[C@@H](CN3CC=C(c4ccccc4)CC3)C2)cc1", "note": "[Example 8, (R)-1-[[3-(4-fluorophenyl)-3-cyclohexen-1-yl]methyl]-1,2,3,6-tetrahydro-4-phenylpyridine]", "values": [{"measurement": "ED50", "setting": "[1]; [6]", "value": 4, "unit": "mg/kg"}, {"measurement": "change in vivo at 10 mg/kg", "setting": "Brain Dopamine Synthesis; [7]", "value": -74, "unit": "%"}, {"measurement": "IC50", "setting": "dopamine receptors [2]; Table 1", "value": 76, "unit": "nM"}]}, {"smiles": "Cc1ccc(C2=CCC[C@@H](CN3CC=C(c4ccccc4)CC3)C2)cc1", "note": "[Example 9, (R)-1,2,3,6-tetrahydro-1-[[3-(4-methylphenyl)-3-cyclohexen-1-yl]methyl]-4-phenylpyridine]", "values": [{"measurement": "ED50", "setting": "[1]; [6]", "value": 0.8, "unit": "mg/kg"}, {"measurement": "change in vivo at 10 mg/kg", "setting": "Brain Dopamine Synthesis; [7]", "value": -42, "unit": "%"}, {"measurement": "IC50", "setting": "dopamine receptors [2]; Table 1", "value": 184, "unit": "nM"}]}, {"smiles": "C1=C(c2ccccc2)CCN(C[C@@H]2CCC=C(c3cccs3)C2)C1.Cl", "note": "[Example 10, (R)-1,2,3,6-tetrahydro-4-phenyl-1-[[3-(2-thienyl)-3-cyclohexen-1-yl]methyl]pyridine monohydrochloride]", "values": [{"measurement": "ED50", "setting": "[1]; [6]", "value": 1.6, "unit": "mg/kg"}, {"measurement": "change in vivo at 10 mg/kg", "setting": "Brain Dopamine Synthesis; [7]", "value": -54, "unit": "%"}, {"measurement": "IC50", "setting": "dopamine receptors [2]; Table 1", "value": 79, "unit": "nM"}]}, {"smiles": "C1=C(c2ccccc2)CCN(C[C@H]2C=C(c3cccs3)CCC2)C1.Cl", "note": "[Example 10a, (R)-1,2,3,6-tetrahydro-4-phenyl-1-[[3-(2-thienyl)-2-cyclohexen-1-yl]methyl]pyridine monohydrochloride]", "values": [{"measurement": "ED50", "setting": "[1]; [6]", "value": 1.5, "unit": "mg/kg"}, {"measurement": "change in vivo at 10 mg/kg", "setting": "Brain Dopamine Synthesis; [7]", "value": -58, "unit": "%"}, {"measurement": "IC50", "setting": "dopamine receptors [2]; Table 1", "value": 110, "unit": "nM"}]}, {"smiles": "COc1ccc(C2=CCC[C@@H](CN3CC=C(c4ccccc4)CC3)C2)cc1.Cl", "note": "[Example 11, (R)-1,2,3,6-tetrahydro-1-[[3-(4-methoxyphenyl)-3-cyclohexen-1-yl]methyl]-4-phenylpyridine monohydrochloride]", "values": [{"measurement": "ED50", "setting": "[1]; [6]", "value": 0.37, "unit": "mg/kg"}, {"measurement": "change in vivo at 10 mg/kg", "setting": "Brain Dopamine Synthesis; [7]", "value": -47, "unit": "%"}, {"measurement": "IC50", "setting": "dopamine receptors [2]; Table 1", "value": 100, "unit": "nM"}]}, {"smiles": "C1=C(c2ccccc2)CCN(C[C@@H]2CCC=C(c3cccnc3)C2)C1.Cl", "note": "[Example 12, (R)-3-[5-[(3,6-dihydro-4-phenyl-1(2H)-pyridinyl)methyl]-1-cyclohexen-1-yl]pyridine monohydrochloride]", "values": [{"measurement": "ED50", "setting": "[1]; [6]", "value": 0.01, "unit": "mg/kg"}, {"measurement": "change in vivo at 10 mg/kg", "setting": "Brain Dopamine Synthesis; [7]", "value": -85, "unit": "%"}, {"measurement": "IC50", "setting": "dopamine receptors [2]; Table 1", "value": 82, "unit": "nM"}]}, {"smiles": "C1=C(c2cccnc2)CCC[C@H]1CN1CC=C(c2ccccc2)CC1.Cl.Cl", "note": "[Example 12a, (R)-3-[3-[(3,6-dihydro-4-phenyl-1(2H)-pyridinyl)methyl]-1-cyclohexen-1-yl]pyridine dihydrochloride]", "values": [{"measurement": "ED50", "setting": "[1]; [6]", "value": 0.07, "unit": "mg/kg"}, {"measurement": "change in vivo at 10 mg/kg", "setting": "Brain Dopamine Synthesis; [7]", "value": -97, "unit": "%"}, {"measurement": "IC50", "setting": "dopamine receptors [2]; Table 1", "value": 87, "unit": "nM"}]}, {"smiles": "CN(C)c1ccc(C2=CCC[C@@H](CN3CC=C(c4ccccc4)CC3)C2)cc1", "note": "[Example 16, (R)-4-[5-[(3,6-dihydro-4-phenyl-1(2H)-pyridinyl)methyl]-1-cyclohexen-1-yl]-N,N-dimethylbenzeneamine]", "values": [{"measurement": "ED50", "setting": "[1]; [6]", "value": 0.2, "unit": "mg/kg"}, {"measurement": "change in vivo at 10 mg/kg", "setting": "Brain Dopamine Synthesis; [7]", "value": -76, "unit": "%"}, {"measurement": "IC50", "setting": "dopamine receptors [2]; Table 1", "value": 53, "unit": "nM"}]}, {"smiles": "C1=C(c2ccccc2)CCN(C[C@@H]2CCC=C(c3cnc4ccccc4c3)C2)C1", "note": "[Example 17, (R)-3-[5-[(3,6-dihydro-4-phenyl-1(2H)-pyridinyl)methyl]-1-cyclohexen-1-yl]quinoline]", "values": [{"measurement": "ED50", "setting": "[1]; [6]", "value": 0.23, "unit": "mg/kg"}, {"measurement": "change in vivo at 10 mg/kg", "setting": "Brain Dopamine Synthesis; [7]", "value": -21, "unit": "%"}, {"measurement": "IC50", "setting": "dopamine receptors [2]; Table 1", "value": 76, "unit": "nM"}]}, {"smiles": "O=C(N[C@H]1CCC[C@@H](CN2CC=C(c3ccccc3)CC2)C1)c1ccccc1", "note": "[Example 19, (1S-cis)-N-[3-[(3,6-dihydro-4-phenyl-1(2H)-pyridinyl)methyl]cyclohexyl]benzamide]", "values": [{"measurement": "ED50", "setting": "[1]; [6]", "value": 0.15, "unit": "mg/kg"}, {"measurement": "change in vivo at 10 mg/kg", "setting": "Brain Dopamine Synthesis; [7]", "value": -95, "unit": "%"}, {"measurement": "IC50", "setting": "dopamine receptors [2]; Table 1", "value": 34, "unit": "nM"}]}, {"smiles": "C1=C(c2ccccc2)CCN(C[C@@H]2CCC[C@H](c3ccccc3)C2)C1.Cl", "note": "[Example 20, (1R-cis) 1,2,3,6-tetrahydro-4-phenyl-1-[(3-phenylcyclohexyl)methyl]pyridine monohydrochloride]", "values": [{"measurement": "ED50", "setting": "[1]; [6]", "value": 0.7, "unit": "mg/kg"}, {"measurement": "change in vivo at 10 mg/kg", "setting": "Brain Dopamine Synthesis; [7]", "value": -100, "unit": "%"}, {"measurement": "IC50", "setting": "dopamine receptors [2]; Table 1", "value": 71, "unit": "nM"}]}, {"smiles": "C1=C(c2ccccc2)C[C@H](CN2CCN(c3ccccn3)CC2)CC1", "note": "[Example 21, (R)-1-[(3-Phenyl-3-cyclohexen-1-yl)methyl]-4-(2-pyridinyl)piperazine]", "values": [{"measurement": "ED50", "setting": "[1]; [8]", "value": 9.9, "unit": "mg/kg"}, {"measurement": "change in vivo at 10 mg/kg", "setting": "Brain Dopamine Synthesis; [9]", "value": -27, "unit": "%"}, {"measurement": "IC50", "setting": "dopamine receptors [2]; Table 1", "value": 76, "unit": "nM"}]}]}
